# Patent US5886190A, “Rapid synthesis and use of 18F-fluoromisonidazole and analogs” (priority 1997, dated 1999)
# Several values for one entry are separate records, joined by “and”; a condition that tells them apart may be missing. Identical values can stand only once. Like-named read-outs stand apart in the source and are kept apart here.
# Key:
# [1] = test system: patients; conditions: cited from earlier work; for Dose-limiting toxicity: clinical trials
# [2] = in mice; cited from earlier work
# [3] = test system: cancer of the pharynx; conditions: cited from earlier work; for Radiosensitizer potency: human, in vivo; for Clinical benefit on addition: patients with high hemoglobin levels and cancer of the pharynx
# [4] = test system: mammary tumor cells (13762 tumor cell line); conditions: for Tumor/blood count density ratio / Tumor/liver count density ratio / Tumor/muscle count density ratio / Blood, percent of injected dose/gram weight / Bone, percent of injected dose/gram weight / Kidney, percent of injected dose/gram weight / Liver, percent of injected dose/gram weight / Lung, percent of injected dose/gram weight / Muscle, percent of injected dose/gram weight / Spleen, percent of injected dose/gram weight / Tumor, percent of injected dose/gram weight: 10 μCi/rat iv, N = 3
# Procedure: (§1) The synthesis scheme for [^18 F]FETNIM is depicted in FIG. 6. Biodistribution studies of [^18 F]FETNIM were performed at 1, 2 and 4 hours in mammary tumor-bearing rats (10 μCi, iv, N=3/time interval). Autoradiograms were performed at 1 hour postinjection of [^18 F]FETNIM, and a comparison has been made with [^18 F]fluoromisonidazole (FMISO). Intratumoral oxygen tension measurements were performed using the Eppendorf computerized histographic system. Twenty to twenty-five pO2 measurements along each of 2 to 3 linear tracks were performed at 0.4 mm intervals on each tumor. PET imaging studies of [^18 F]FETNIM were performed in rabbits bearing V2 tumors (N=3, 4 mCI, iv) which were located on the right leg.
# Female Fischer 344 rats (250-275 g) (Harlan, Inc., Indianapolis, Ind.) were inoculated with mammary tumor cells in the lumbar area using a 13762 tumor cell line (s.c. 10^5 cells/rat). […] Three groups of rats (N=3/group) were anesthetized with ketamine (10-15 mg/rat). The ^18 F-FETNIM reconstituted in 5% ethanol/saline was given to rats (10 μCi/rat, iv) and tissue distribution was conducted at 1h, 2h and 4h intervals. The tissues were excised, weighed and counted for radioactivity. The percent of injected dose per gram of tissue weight was determined.
# [5] = test system: VX2 tumor; conditions: 4 mCi; 1 hour postinjection
# Procedure: as §1
# PET imaging was performed with a positron camera (Positron Corporation, Houston, Tex.). The tomograph has a field-of-view of 42 cm on transverse and 12 cm on coronal planes. The axial resolution on the reconstructed plane is 1.2 cm.
# Three male New Zealand white rabbits each weighing 3 kg were inoculated at a single site in the right buttock area with a 0.5 ml suspension of minced VX2 tumor fragments (10^6 cells/rabbit). The tumors are maintained through serial animal passage and are available from the Department of Veterinary Medicine (The University of Texas M.D. Anderson Cancer Center, Houston, Tex.). […]
# [6] = test system: mammary tumor; test: Autoradiographic studies in tumor-bearing rats; conditions: 1 hour postinjection
# Procedure: as §1
# Female Fischer 344 mammary tumor-bearing rats (n=3) after receiving [^18 F]FETNIM (2 mCi, iv) were sacrificed at 1 h. […] The rats were sacrificed at 1 hour postinjection. The rat body was fixed in a carboxymethyl cellulose (4%) block. The frozen body in a block was mounted to a cryostat (LKB 2250 cryo-microtome, Ijamsville, Md.) and 40 μm coronal sections were made. The section was freeze dried, then mounted on a x-ray film (X-Omat AR, Kodak, Rochester, N.Y.) for 24 hours.
# [7] = test system: hypoxic cells; test: Selectivity to hypoxic cells (PET imaging, autoradiograms, biodistribution); conditions: in vivo
# Procedure: as §1
# PET imaging was performed with a positron camera (Positron Corporation, Houston, Tex.). The tomograph has a field-of-view of 42 cm on transverse and 12 cm on coronal planes. The axial resolution on the reconstructed plane is 1.2 cm. […]
# Female Fischer 344 rats (250-275 g) (Harlan, Inc., Indianapolis, Ind.) were inoculated with mammary tumor cells in the lumbar area using a 13762 tumor cell line (s.c. 10^5 cells/rat). […] The tissues were excised, weighed and counted for radioactivity. The percent of injected dose per gram of tissue weight was determined.
# [8] = Hydrophilicity (from autoradiogram and chemistry); assay type: physicochemical; conditions: relative to comparator named in value
# [9] = 1 hour, listed as [^18 F] Fluoroerythronitroimidazole
# [10] = 2 hour, listed as [^18 F] Fluoroerythronitroimidazole
# [11] = 4 hour, listed as [^18 F] Fluoroerythronitroimidazole
smiles,measurement,setting,value
COCC(O)Cn1ccnc1[N+](=O)[O-] (centres unmarked) [misonidazole],Dose-limiting toxicity,[1],peripheral neuropathy that progressed to central nervous system toxicity if drug administration was not stopped
same,Most common side effect,"[1]; human, in vivo",peripheral sensory neuropathy of the hands and feet
same,Toxicity after large single doses,[1]; large single doses,convulsions
same,Toxicity following small multiple doses,[1]; small multiple doses,encephalopathies
same,Dose which affects the neurotransmitter system,[2],0.76 mg/g
same,Radiosensitizer potency,[3],potent radiosensitizers
same,Clinical benefit on addition,[3],great benefit
"O=[N+]([O-])c1nccn1C[C@H](O)[C@H](O)CF [[^18 F]FETNIM, [^18 F]fluoroerythro-2-nitroimidazole]","Tumor/muscle, tumor/blood and tumor/liver count density ratios, change with time","[4]; 1, 2 and 4 h",showed increases with time
same,Tumor/blood count density ratio,[4]; 1 hour,2.29±0.599
same,Tumor/liver count density ratio,[4]; 1 hour,1.7600 ± 0.4415
same,Tumor/muscle count density ratio,[4]; 1 hour,0.66±0.267
same,Tumor/blood count density ratio,[4]; [9],2.2900 ± 0.5994
same,Tumor/muscle count density ratio,[4]; [9],0.6602 ± 0.2666
same,Tumor/blood count density ratio,[4]; 2 hour,2.41±0.567
same,Tumor/liver count density ratio,[4]; 2 hour,1.7700 ± 0.2561
same,Tumor/muscle count density ratio,[4]; 2 hour,2.11±0.347
same,Tumor/blood count density ratio,[4]; [10],2.4100 ± 0.5672
same,Tumor/muscle count density ratio,[4]; [10],2.1100 ± 0.3468
same,Tumor/blood count density ratio,[4]; 4 hour,8.0±2.42 and 8.02±2.420
same,Tumor/liver count density ratio,[4]; 4 hour,4.3300 ± 1.31
same,Tumor/muscle count density ratio,[4]; 4 hour,5.92±2.240
same,Tumor/blood count density ratio,[4]; [11],8.0200 ± 2.42
same,Tumor/muscle count density ratio,[4]; [11],5.9200 ± 2.24
same,"Blood, percent of injected dose/gram weight",[4]; 1 hour,0.3493 ± 0.02173% of Injected Dose/Gram Weight
same,"Blood, percent of injected dose/gram weight",[4]; 2 hour,0.1950 ± 0.02828% of Injected Dose/Gram Weight
same,"Blood, percent of injected dose/gram weight",[4]; 4 hour,0.0993 ± 0.01266% of Injected Dose/Gram Weight
same,"Bone, percent of injected dose/gram weight",[4]; 1 hour,0.2570 ± 0.14% of Injected Dose/Gram Weight
same,"Bone, percent of injected dose/gram weight",[4]; 2 hour,0.0810 ± 0.00424% of Injected Dose/Gram Weight
same,"Bone, percent of injected dose/gram weight",[4]; 4 hour,0.0753 ± 0.0157% of Injected Dose/Gram Weight
same,"Kidney, percent of injected dose/gram weight",[4]; 1 hour,0.8860 ± 0.00424% of Injected Dose/Gram Weight
same,"Kidney, percent of injected dose/gram weight",[4]; 2 hour,0.5145 ± 0.02334% of Injected Dose/Gram Weight
same,"Kidney, percent of injected dose/gram weight",[4]; 4 hour,0.4663 ± 0.06866% of Injected Dose/Gram Weight
same,"Liver, percent of injected dose/gram weight",[4]; 1 hour,0.4530 ± 0.01493% of Injected Dose/Gram Weight
same,"Liver, percent of injected dose/gram weight",[4]; 2 hour,0.3123 ± 0.08225% of Injected Dose/Gram Weight
same,"Liver, percent of injected dose/gram weight",[4]; 4 hour,0.1843 ± 0.02458% of Injected Dose/Gram Weight
same,"Lung, percent of injected dose/gram weight",[4]; 1 hour,0.3577 ± 0.00723% of Injected Dose/Gram Weight
same,"Lung, percent of injected dose/gram weight",[4]; 2 hour,0.2107 ± 0.05713% of Injected Dose/Gram Weight
same,"Lung, percent of injected dose/gram weight",[4]; 4 hour,0.1027 ± 0.02122% of Injected Dose/Gram Weight
same,"Muscle, percent of injected dose/gram weight",[4]; 1 hour,1.2600 ± 0.08627% of Injected Dose/Gram Weight
same,"Muscle, percent of injected dose/gram weight",[4]; 2 hour,0.2670 ± 0.09036% of Injected Dose/Gram Weight
same,"Muscle, percent of injected dose/gram weight",[4]; 4 hour,0.1377 ± 0.01893% of Injected Dose/Gram Weight
same,"Spleen, percent of injected dose/gram weight",[4]; 1 hour,0.3183 ± 0.02011% of Injected Dose/Gram Weight
same,"Spleen, percent of injected dose/gram weight",[4]; 2 hour,0.2013 ± 0.05918% of Injected Dose/Gram Weight
same,"Spleen, percent of injected dose/gram weight",[4]; 4 hour,0.0953 ± 0.01401% of Injected Dose/Gram Weight
same,"Tumor, percent of injected dose/gram weight",[4]; 1 hour,0.7957 ± 0.2036% of Injected Dose/Gram Weight
same,"Tumor, percent of injected dose/gram weight",[4]; 2 hour,0.5516 ± 0.1582% of Injected Dose/Gram Weight
same,"Tumor, percent of injected dose/gram weight",[4]; 4 hour,0.8113 ± 0.3377% of Injected Dose/Gram Weight
same,SUV value of the tumor,[5],greater than 10
same,Tumor visualization by autoradiography,[6]; 2 mCi iv,the tumor could be visualized 1 hour postinjection
same,Uptake in the center region of the tumor,[6]; 2 mCi iv,lack of uptake
same,Uptake in intestines and colon,[6],high uptake
same,Uptake in medullary of the kidney area,[6],higher uptake
same,Differentiation of hypoxic versus necrotic regions in the tumor,[6]; autoradiogram,could differentiate hypoxic versus necrotic regions in the tumor
same,Selectivity to hypoxic cells,[7],selective to hypoxic cells
same,Hydrophilicity,[8],more hydrophilic than [^18 F]FMISO
same,Hydrophilicity,[8]; listed as [^18 F]fluoroerythronitroimidazole,more hydrophilic than misonidazole
O=C(Cn1ccnc1[N+](=O)[O-])NCCO [etanidazole],Dose-limiting toxicity,[1],peripheral neuropathy that progressed to central nervous system toxicity if drug administration was not stopped
same,Radiosensitizer potency,[3],potent radiosensitizers
same,Clinical benefit on addition,[3],great benefit
